Results: ChEMBL document CHEMBL5543121, “Drug Repurposing of ACT001 to Discover Novel Promising Sulfide Prodrugs with Improved Safety and Potent Activity for Neutrophil-Mediated Antifungal Immunotherapy” (J Med Chem, 2024)

Experiments:
[1] = Inhibition of fungal curdlan induced PD-L1 expression in mouse neutrophils at 40 uM relative to control; type: functional, Neutrophil; conditions: for inhibition (INH): 40 µM; for inhibition at 40 µM: Mus musculus, Neutrophil
[2] = tested on: Neutrophil; assay: (§1) Cytotoxicity against mouse neutrophils assessed as cell viability at 40 uM relative to control; type: toxicity, cell-based; conditions: neutrophil, 40 µM
[3] = as §1; type: toxicity, cell-based, Neutrophil; conditions: mouse neutrophils, read-out: Activity

SMILES | inhibition (INH) [1] [%] | Activity [2] [%] | inhibition at 40 µM [1] [%] | viability at 40 µM [3] [%]
C[C@@]1(O)CC[C@]23O[C@@]2(C)CC[C@@H]2[C@H](OC(=O)[C@H]2C[S+]([O-])c2ccc(Cl)cc2Cl)[C@@H]13 (stereo in doubt; 23b) | 52.64 | 65.45 |  | 
COc1ccc(SC[C@@H]2C(=O)O[C@H]3[C@H]2CCC(C)=C2CC[C@@](C)(O)[C@@H]23)cc1 |  |  | 63.2 | 88.8
C[C@@]1(O)CC[C@]23O[C@@]2(C)CC[C@@H]2[C@H](OC(=O)[C@H]2CS(=O)(=O)c2ncccn2)[C@@H]13 |  |  | 85 | 55.5
C[C@@]1(O)CC[C@]23O[C@@]2(C)CC[C@@H]2[C@H](OC(=O)[C@H]2CS(=O)(=O)c2ccc(Cl)c(Cl)c2)[C@@H]13 |  |  | 72.7 | 65.2
CC1=C2CC[C@@](C)(O)[C@@H]2[C@H]2OC(=O)[C@@H](C[S+]([O-])c3ccc(Cl)cc3Cl)[C@@H]2CC1 (stereo in doubt; 22b) | 47.66 | 21.1 |  | 
CC1=C2CC[C@@](C)(O)[C@@H]2[C@H]2OC(=O)[C@@H](CSC3CCCCC3)[C@@H]2CC1 |  |  | 15.8 | 101
CC1=C2CC[C@@](C)(O)[C@@H]2[C@H]2OC(=O)[C@@H](CSc3ncccn3)[C@@H]2CC1 |  |  | 49.9 | 60.2
CC1=C2CC[C@@](C)(O)[C@@H]2[C@H]2OC(=O)[C@@H](CS(=O)(=O)C3CCCCC3)[C@@H]2CC1 |  |  | 49.5 | 66.3
COc1ccc(S(=O)(=O)C[C@@H]2C(=O)O[C@H]3[C@H]2CCC(C)=C2CC[C@@](C)(O)[C@@H]23)cc1 |  |  | 63.5 | 39.5
CC1=C2CC[C@@](C)(O)[C@@H]2[C@H]2OC(=O)[C@@H](C)[C@@H]2CC1 |  |  | 17.3 | 98.6
CC1=C2CC[C@@](C)(O)[C@@H]2[C@H]2OC(=O)[C@@H](CSc3ccc(Cl)cc3Cl)[C@@H]2CC1 |  |  | 52.6 | 20.8
COc1ccc(S(=O)(=O)C[C@@H]2C(=O)O[C@H]3[C@H]2CC[C@]2(C)O[C@@]24CC[C@@](C)(O)[C@H]34)cc1 |  |  | 77.4 | 54.8
C[C@@]1(O)CC[C@]23O[C@@]2(C)CC[C@@H]2[C@H](OC(=O)[C@H]2CS(=O)(=O)C2CCCCC2)[C@@H]13 |  |  | 65.3 | 76.2
C[C@@]1(O)CC[C@]23O[C@@]2(C)CC[C@@H]2[C@H](OC(=O)[C@H]2CS(=O)(=O)c2ccncc2)[C@@H]13 |  |  | 65.4 | 79.4
CC1=C2CC[C@@](C)(O)[C@@H]2[C@H]2OC(=O)[C@@H](CSc3ccncc3)[C@@H]2CC1 |  |  | 72.5 | 57.2
